What was measured:
mice [1] = conditions: cited from earlier work
rats = conditions: cited from earlier work
male C57BL/6J mice [2] = assay: Blood ethanol concentration after ethanol ingestion (headspace gas chromatography); format: in vivo; conditions: oral/intragastric 500 mg/kg (Example 1: 250 or 500 mg/kg) before 8 ml/kg ethanol (40% w/v); FIG. 1A
Experimental: Mice were randomly divided into a normal group (untreated group), a control group and a treatment group, with 8 mice in each group. […] The control group was given the same ethanol solution and corresponding distilled water, while the normal group was only given corresponding distilled water. At different time points of the experiment, the mice were anesthetized by intraperitoneal injection of 10% chloral hydrate (350 mg/kg body weight). Blood and liver tissues were extracted from each animal.
Eyeball blood samples (0.3 mL) were taken, each was put into an 8 mL headspace vial containing 1.2 mL 0.6 M perchloric acid, 0.5 mL trichloroacetic acid (10%) and 0.3 mL internal standard (160 mg/L tertiary butanol), and the concentrations of ethanol and acetaldehyde were determined with headspace gas chromatography.
Blood samples were collected from the infraorbital venous plexus at different time points (as indicated) after the ethanol administration. Blood ethanol (FIG. 1A) and acetaldehyde (FIG. 1B) levels were determined. Each group contained 6-8 mice. Data are presented as the mean±SD.

glutamate receptors = conditions: not as great as that of L-glutamic acid; cited from earlier work
mice [3] = conditions: intraperitoneal injection of theanine, oral administration of ethanol; cited from earlier work
[4] = after oral administration; cited from earlier work
C57BL/6J mice = conditions: cited from earlier work
male C57BL/6J mice [5] = assay: Serum very low density lipoprotein (VLDL), lipid metabolism in acute alcoholic liver damage; format: in vivo; conditions: 500 mg/kg pretreatment, alcohol-loaded mice, vs alcohol exposure alone; FIG. 4B
male C57BL/6J mice [6] = assay: Liver triglyceride (TG) level, lipid metabolism in acute alcoholic liver damage; format: in vivo; conditions: 500 mg/kg pretreatment, alcohol-loaded mice, vs alcohol exposure alone; FIG. 4A
cells = conditions: cited from earlier work
male C57BL/6J mice [7] = assay: Liver MDA and SOD, oxidative damage caused by acute alcohol ingestion; format: in vivo; conditions: 500 mg/kg intragastric 15 min prior to 8 ml/kg ethanol (40% w/v), liver 6 hours after alcohol; for MDA content in the liver: FIG. 3A; for SOD activity in liver: FIG. 3B
male C57BL/6J mice [8] = assay: Blood acetaldehyde concentration after ethanol ingestion (headspace gas chromatography); format: in vivo; conditions: FIG. 1B
male C57BL/6J mice [9] = assay: Plasma AST and ALT, acute alcohol-induced hepatotoxicity; format: in vivo; conditions: 500 mg/kg intragastric before 8 ml/kg ethanol (40% w/v), blood 6 hours after alcohol, vs model group
[10] = cited from earlier work

O=C1c2c(O)cc(O)cc2O[C@H](c2cc(O)c(O)c(O)c2)[C@H]1O [DHM, Dihydromyricetin]
blood alcohol levels (mice [1]): reduce blood alcohol levels
muscle relaxation induced by alcohol (rats): prevent muscle relaxation
ethanol in blood (male C57BL/6J mice [2]): significantly reduce

CCNC(=O)CC[C@H](N)C(=O)O [L-theanine]
binding affinity to glutamate receptors (glutamate receptors): weak
effect with respect to alcoholic liver injury (mice [3]): protective effect
time to cross the blood-brain barrier [4]: ≤ 30 min
ethanol in blood (male C57BL/6J mice [2]): significantly reduce

NC(=O)C1=CN([C@@H]2O[C@H](COP(=O)(O)OP(=O)(O)OC[C@H]3O[C@@H](n4cnc5c(N)ncnc54)C(O)C3O)C(O)C2O)C=CC1 (some centres unmarked) [NADH, nicotinamide adenine dinucleotide (NAD)+hydrogen (H)]
liver NAD+/NADH ratio (C57BL/6J mice): significantly increased
NAD+ content in liver, blood, brain and fat (C57BL/6J mice; intraperitoneal injection): significantly increased
serum VLDL level (male C57BL/6J mice [5]): decreased
liver TG level (male C57BL/6J mice [6]): decreased
cell death caused by NAD+-depleting genotoxins (cells; NADH-treated cells, e.g. hydrogen peroxide): resistant to cell death
NAD+ increase compared to nicotinamide mononucelotide (NMN) (cells; at the same concentrations): greater NAD+ increases
apoptosis markers in cells (cells): did not induce apoptosis markers
MDA content in the liver (male C57BL/6J mice [7]): significantly reduce
SOD activity in liver (male C57BL/6J mice [7]): increase
acetaldehyde in the blood (male C57BL/6J mice [8]; after two hours after ethanol administration): significantly reduced
blood acetaldehyde levels (male C57BL/6J mice [8]; between 30 minutes and two hours after ethanol administration): significantly increased
plasma AST level (male C57BL/6J mice [9]; FIG. 2A): significantly reduce
plasma ALT level (male C57BL/6J mice [9]; FIG. 2B): significantly reduce
ethanol in blood (male C57BL/6J mice [2]): significantly reduce

N[C@@H](CS)C(=O)O [L-cysteine]
stress and anxiety ([10]; dose of 600 mg): relieved
self-assessed severity of the hangover, nausea and headache ([10]; dose of 1200 mg): improved

CC(=O)N[C@@H](CS)C(=O)O [NAC, N-acetyl-cysteine]
MDA content in the liver (male C57BL/6J mice [7]): significantly reduce
SOD activity in liver (male C57BL/6J mice [7]): increase
ethanol in blood (male C57BL/6J mice [2]): significantly reduce
